Usually MIC50 stands for an inhibitory concentration at the 50% level, which refers to growth in some studies and to a panel of isolates in others. A higher MIC50 goes with weaker potency. The MIC90 is an inhibitory concentration at the 90% level, which refers to growth in some studies and to a panel of isolates in others. By MIC is commonly meant the least concentration at which growth counts as inhibited.

Data on two compounds can be found in US20040044006A1, “Methods of use of quinolone compounds against pneumococcal and haemophilus bacteria” (priority 1999, published 2004).

Converted amounts (≈) assume the structure as drawn. Read-outs that look alike come from different tables or passages of the source.

The subject of experiment [1] is quinolone susceptible pneumococci (ciprofloxacin MICs ≦4.0 μg/ml). The experiment can be described thus: Agar dilution MICs of 207 quinolone susceptible pneumococcal strains. The experiment is classed as cell-based, Streptococcus pneumoniae. Particulars: Streptococcus pneumoniae, agar dilution; for MIC90: read-out: MIC90; for MIC: read-out: MIC range. As for the experimental part: All susceptible, and some intermediate and resistant strains, were recent U.S. isolates. The remainder of intermediate and resistant strains were isolated in South Africa, Spain, France, Central and Eastern Europe, and Korea. […] Additionally these strains were tested for mutations in parC, gyrA, parE, and gyrB (Pan, et al., Antimicrob. Agents Chemother. 40:2321-2326, 1996) and for efflux mechanism (Brenwald, et al., Antimicrob. Agents Chemother. 42:2032-2035, 1998). For time-kill studies, 4 penicillin susceptible, 4 intermediate and 4 resistant strains (2 quinolone resistant) were tested, while for PAE studies 5 quinolone susceptible and 1 resistant strains were studied.
(§1) Agar dilution methodology was performed on 234 strains as described previously (M. R. Jacobs, Clin. Infect. Dis. 15:119-127, 1992; Jacobs, et al., Rev. Med. Microbiol. 6:77-93, 1995), using Mueller-Hinton agar (BBL Microbiology Systems, Cockeysville, Md.) supplemented with 5% sheep blood. Broth MICs for 12 strains tested by time-kill and 6 tested by PAE were performed according to NCCLS recommendations (Methods for Dilution Antimicrobial Susceptibility Tests for Bacteria that Grow Aerobically, 3rd Edition, NCCLS, Villanova, Pa.) using cation-adjusted Mueller-Hinton broth with 5% lysed defibrinated horse blood. Standard quality control strains, including Streptococcus pneumoniae ATCC 49619, were included in each run of agar and broth dilution MICs.

Experiment [2] concerns pneumococcal strains. The experiment can be described thus: Microbroth dilution MICs of strains tested by time-kill and PAE. It counts as cell-based. Particulars: Streptococcus pneumoniae, read-out: Microdilution MIC. As for the experimental part:
as §1
On the technique in general: In broth dilution the organism is exposed to a series of concentrations in liquid medium.

Experiment [3] has as its system penicillin susceptible and resistant pneumococcal strains (2 quinolone resistant). Nature of the experiment: Time-kill testing of 12 pneumococcal strains. It counts as cell-based, Streptococcus pneumoniae. As to conditions: 12 penicillin susceptible and resistant pneumococcal strains; 24 h; bactericidal = ≧3 log10 cfu/ml (99.9%) reduction. Here is the method:
For time-kill studies, glass tubes containing 5 ml cation-adjusted Mueller-Hinton broth (Difco)+5% lysed horse blood with doubling antibiotic concentrations were inoculated with 5×10^5 to 5×10^6 cfu/ml and incubated at 35° C. in a shaking water bath. […] Growth controls with inoculum but no antibiotic were included with each experiment (Pankuch, et al., Antimicrob. Agents Chemother. 38:2065-2072, 1994; Pankuch, et al., Antimicrob. Agents Chemother. 40:1653-1656, 1996).
Lysed horse blood was prepared as described previously. The bacterial inoculum was prepared by diluting a 16 h broth (medium as above) culture in the same medium. Dilutions required to obtain the correct inoculum (5×10^5-5×10^6 cfu/ml) were determined by prior viability studies using each strain (Pankuch, et al., Antimicrob. Agents Chemother. 38:2065-2072, 1994; Pankuch, et al., Antimicrob. Agents Chemother. 40: 1653-1656, 1996).
To inoculate each tube of serially diluted antibiotic, 50 μl of diluted inoculum was delivered by pipette beneath the surface of the broth. Tubes were then vortexed and plated for viability counts within 10 min (approximately 0.2 h). The original inoculum was determined by using the untreated growth control. Only tubes containing an initial inoculum within the range of 5×10^5 to 5×10^6 cfu/ml were acceptable (Pankuch, et al., Antimicrob. Agents Chemother. 38:2065-2072, 1994; Pankuch, et al., Antimicrob. Agents Chemother. 40:1653-1656, 1996).
Viability counts of antibiotic-containing suspensions were performed by plating ten-fold dilutions of 0.1 ml aliquots from each tube in sterile Mueller-t-Hinton broth onto trypticase soy agar 5% sheep blood agar plates (BBL). Recovery plates were incubated for up to 72 h. Colony Counts were performed on plates yielding 30-300 colonies. The lower limit of sensitivity of colony counts was 300 cfu/ml (Pankuch, et al., Antimicrob. Agents Chemother. 38:2065-2072, 1994; Pankuch, et al., Antimicrob. Agents Chemother. 40:1653-1656, 1996).
Time-kill assays were analysed by determining the number of strains which yielded a log10 cfu/ml of −1, −2 and −3 at 0, 3, 6, 12 and 24 h, compared to counts at time 0 h. Antimicrobials were considered bactericidal at the lowest concentration that reduced the original inoculum by ≧3 log10 cfu/ml (99.9%) at each of the time periods, and bacteriostatic if the inoculum was reduced by 0-3 log10 cfu/ml. […] The problem of bacterial carryover was addressed as described previously. For macrolide time-kill testing, only strains with MICs≦4.0 μg/ml were tested (Pankuch, et al., Antimicrob. Agents Chemother. 38:2065-9072, 1994; Pankuch, et al., Antimicrob. Agents Chemother. 40:1653-1656, 1996).

In experiment [4] the test system is pneumococci (5 quinolone susceptible and 1 resistant strains). The experiment can be described thus: Post-antibiotic effect (PAE) testing. The experiment is classed as cell-based, Streptococcus pneumoniae. Particulars: 10×MIC; range over strains. Here is the method: The post-antibiotic effect (PAE) (Craig, et al., V. Lorian (ed.) Antibiotics in Laboratory Medicine, Williams and Wilkins, Baltimore, pages 296-399, 1996) was determined by the viable plate count method, using Mueller-Hinton broth (MHB) supplemented with 5% lysed horse blood when testing pneumococci. […] Additionally, the one quinolone resistant strain was exposed at quinolone concentrations 5×MIC. Tubes containing 5 ml broth with antibiotic were inoculated with approximately 5×10^6 cfu/ml. Growth controls with inoculum but no antibiotic were included with each experiment. Tubes were placed in a shaking water bath at 35° C. for 1 h. At the end of the exposure period, cultures were diluted 1:1000 to remove antibiotic.
Viability counts were determined before exposure and immediately after dilution (0 h), and then every 2 h until tube turbidity reached a #1 McFarland standard. Inocula were prepared by suspending growth from an overnight blood agar plate in broth. The broth was incubated at 35° C. for 2-4 h in a shaking water bath until turbidity matched a #1 McFarland standard, and checked for viability by plate counts (Spangler, et al., Antimicrob. Agents Chemother. 41:2173-9176, 1997; Spangler, et al., Antimicrob. Agents Chemother. 42:1253-1255, 1998).
The PAE was defined as PAE=T-C; T=time required for viability counts of an antibiotic-exposed culture to increase by 1 log10 above counts immediately after dilution; C=corresponding time for growth control. For each experiment, viability counts (log10 cfu/ml) were plotted against time, and results expressed as the mean of two separate assays±S D (Craig, et al., V. Lorian (ed), Antibiotics in Laboratory Medicine, Williams and Wilkins, Baltimore, pages 296-329, 1996).

Setting [5] is: strain 1 (S) penicillin susceptible.
Where [6] appears, read: strain 2 (S) penicillin susceptible.
The mark [7] stands for this setting: strain 3 (S) penicillin susceptible, quinolone-resistant.
Where [8] appears, read: strain 4 (S) penicillin susceptible, quinolone-resistant.
Where [9] appears, read: strain 5 (I) penicillin intermediate.
The mark [10] stands for this setting: strain 8 (I) penicillin intermediate.
Setting [11] is: strain 9 (R) penicillin resistant.
The mark [12] stands for this setting: strain 11 (R) penicillin resistant.
Setting [13] is: strain 12 (R) penicillin resistant.

For `CO/N=C(\C(=O)N[C@@H]1C(=O)N2C(C(=O)O)=C(COC(N)=O)CS[C@H]12)c1ccco1` [Cefuroxime, cefuroxime], the MIC50 was 0.5 µg/mL (≈ 1.18 µM) in experiment [1] (Penicillin I strains), 8 µg/mL (≈ 18.9 µM) in experiment [1] (Penicillin R strains) and 0.03 µg/mL (≈ 0.0707 µM) in experiment [1] (Penicillin S strains). Moreover, the results for the MIC90 in experiment [1] (Penicillin I strains), in experiment [1] (Penicillin R strains) and in experiment [1] (Penicillin S strains) were 2 µg/mL (≈ 4.71 µM), 16 µg/mL (≈ 37.7 µM) and 0.25 µg/mL (≈ 0.589 µM), respectively. In addition, the MIC was 0.125 to 8 µg/mL (≈ 0.295 to 18.9 µM) in experiment [1] (Penicillin I strains); 0.5 to 32 µg/mL (≈ 1.18 to 75.4 µM) in experiment [1] (Penicillin R strains); 0.008 to 2 µg/mL (≈ 0.0189 to 4.71 µM) in experiment [1] (Penicillin S strains); 0.5 µg/mL (≈ 1.18 µM) in experiment [2] (setting [5]); 0.25 µg/mL (≈ 0.589 µM) in experiment [2] (setting [6]); 0.016 µg/mL (≈ 0.0377 µM) in experiment [2] (setting [7]). Further, the MIC was 0.016 µg/mL (≈ 0.0377 µM) in experiment [2] (setting [8]); 0.5 µg/mL (≈ 1.18 µM) in experiment [2] (setting [9]); 0.5 µg/mL (≈ 1.18 µM) in experiment [2] (strain 6 (I) penicillin intermediate); 0.5 µg/mL (≈ 1.18 µM) in experiment [2] (strain 7 (I) penicillin intermediate); 0.25 µg/mL (≈ 0.589 µM) in experiment [2] (setting [10]); 2 µg/mL (≈ 4.71 µM) in experiment [2] (setting [11]). For the same compound, the MIC in experiment [2] (strain 10 (I)) is 0.5 µg/mL (≈ 1.18 µM); in experiment [2] (setting [12]) it was 4 µg/mL (≈ 9.43 µM); in experiment [2] (setting [13]), 2 µg/mL (≈ 4.71 µM). Also, the “concentration at which bactericidal after 24 h” value in experiment [3] is on record as 4 ×MIC. Also, in experiment [4], the “PAE for non-quinolone compounds” value lay within 0.8 to 2.9 h.

On to `CC1(C)S[C@@H]2[C@H](NC(=O)[C@H](N)c3ccc(O)cc3)C(=O)N2[C@H]1C(=O)O` [Amoxicillin, amoxicillin], for which the MIC90 in experiment [1] (Penicillin I strains) is 1 µg/mL (≈ 2.74 µM); in experiment [1] (Penicillin R strains), 4 µg/mL (≈ 10.9 µM); in experiment [1] (Penicillin S strains) it was 0.06 µg/mL (≈ 0.164 µM). Besides, the MIC in experiment [1] (Penicillin I strains) is 0.016 to 4 µg/mL (≈ 0.0438 to 10.9 µM); in experiment [1] (Penicillin R strains), 0.5 to 8 µg/mL (≈ 1.37 to 21.9 µM); in experiment [1] (Penicillin S strains), 0.008 to 0.25 µg/mL (≈ 0.0219 to 0.684 µM); in experiment [2] (setting [5]), 0.016 µg/mL (≈ 0.0438 µM); in experiment [2] (setting [6]) it was 0.016 µg/mL (≈ 0.0438 µM); in experiment [2] (setting [7]), 0.008 µg/mL (≈ 0.0219 µM). For the same compound, the MIC in experiment [2] (setting [8]) stood at 0.008 µg/mL (≈ 0.0219 µM); in experiment [2] (setting [9]) it was 0.03 µg/mL (≈ 0.0821 µM); in experiment [2] (setting [10]), 0.06 µg/mL (≈ 0.164 µM); in experiment [2] (setting [11]), 1 µg/mL (≈ 2.74 µM); in experiment [2] (strain 10 (I)), 1 µg/mL (≈ 2.74 µM); in experiment [2] (setting [12]), 2 µg/mL (≈ 5.47 µM). Moreover, the minimum inhibitory concentration (MIC) in experiment [2] (setting [13]) was found to be 2 µg/mL (≈ 5.47 µM). In addition, the MIC50 in experiment [1] (Penicillin R strains) amounted to 2 µg/mL (≈ 5.47 µM); in experiment [1] (Penicillin S strains) it was 0.016 µg/mL (≈ 0.0438 µM). Also, the “concentration at which bactericidal after 24 h” value in experiment [3] stood at 2 ×MIC. In experiment [4], the “PAE for non-quinolone compounds” value lay within 0.3 to 5.8 h.
